# From patent US10966996B2, “Glechoma longitube extract, preparation method for same, and use thereof in sugar reduction, weight loss, and lipid reduction” (SHANGHAI INSTITUTE OF MATERIA MEDICA CHINESE ACADEMY OF …, priority 2014, dated 2021)
# Tested on: db/db mice
# Test: acute oral glucose tolerance in db/db mice
# Assay type: in vivo
# Conditions: 100 mg/kg
# Description: Oral glucose tolerance test (OGTT) method: 8-week old male C57BL/KsJ mice (Shanghai Slac Laboratory Animal Company), 8 for each group, weight of 20±2 g, were fed according to SPF grade operation procedure and fasted for 16 hours prior to experiment. Blood was collected from tail vein of each group of mice prior to experiment. Blood glucose concentrations were measured using Roche ACCU-CHEK glucometer and recorded as time 0. Different concentrations of the compound were intragastric administrated to each administration group of mice, respectively. Equal volume of distilled water was given to control group of mice. The dosage volume was 10 ml/kg. Half an hour after administration, 5 g/kg glucose was intragastric administrated to each group of mice. Blood glucose concentrations of each group of mice were measured and recorded at 20 mins, 40 mins, and 80 mins after the intragastric administration. OGTT curves were recorded. Areas under the curves (AUC) were calibrated with the data in blood glucose of mice to which glucose was not given (calibration group). ONE-WAY-ANOVA was used to compare significant difference between each group (Note: all the experimental methods for acute oral glucose tolerance test in the following activity examples are the same to the experimental method in Example 5, unless otherwise indicated). […]
smiles,measurement,value
"O=C(O)C1O[C@@H](OC2C(O)[C@H](O)C(C(=O)O)O[C@H]2Oc2cc(O)c3c(=O)cc(-c4ccc(O)c(O)c4)oc3c2)C(O)C(O)[C@@H]1O (stereo partly drawn) [Compound I, luteolin-7-O-[β-glucuronosyl(1→2)β-glucuronic acid]]",acute oral glucose tolerance in db/db mice,significantly enhances acute oral glucose tolerance
